The record followed here is ChEMBL document CHEMBL1201862, “PubChem BioAssay data set” (2004).

The source made the active and inactive calls.

The term EC50 denotes the concentration at which the effect is half-maximal. Broadly, the CC50 is the concentration at which the toxic effect on the cells reaches its halfway point. A word on the IC50: it is the midpoint of a concentration-inhibition curve. By AC50 is commonly meant the concentration giving half of the maximal activity seen.

The subject of assay [1] is Streptococcus sp. 'group A'. Briefly: Streptococcus pyogenes SK(-)GAS viability under kanamycin – luminescence, BacTiterGlo, confirmation, counter-screen for streptokinase expression inhibitor project, dose response (AID 1900). The assay is classed as functional, organism-based. In general terms: Counterscreens check selectivity or assay interference.
Assay [2] can be described thus: viability loss in THP-1 monocytes – THP-1 cells, cytotoxicity control for Vif-APOBEC3G degradation inhibitor project, dose response (AID 1117359). The following applies: THP-1. The class given is functional.
Assay [3] concerns the target Troponin, cardiac muscle (Homo sapiens, UniProt P19429+P45379+P63316). Briefly: compounds desensitizing RTF to calcium – biochemical, fluorescence, cardiac regulated thin filaments, triplicate IC50, dose response (AID 504742). The assay is classed as protein-complex assay.
For assay [4], the target named is Large T antigen (Simian virus 40, UniProt P03070). The assay is classed as functional, Betapolyomavirus macacae.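 Further: Confirmatory-stage PubChem screen for compounds that inhibit SV40 T antigen.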
Assay [5] has as its system HepG2. Briefly: viability loss in HepG2 hepatoma cells – cell-based, cherry-picks, set 2, cytotoxicity control, dose response (AID 687002). The assay is classed as functional. The following applies: Homo sapiens.
Assay [6] has as its target T1, Bcl-2-related protein A1 (Mus musculus, UniProt Q07440).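 Further: confirmatory dose–response counterscreen on Bfl-1, used to check hits from a UBC13 polyubiquitin inhibitor campaign.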
T1 sequence (Q07440 whole entry): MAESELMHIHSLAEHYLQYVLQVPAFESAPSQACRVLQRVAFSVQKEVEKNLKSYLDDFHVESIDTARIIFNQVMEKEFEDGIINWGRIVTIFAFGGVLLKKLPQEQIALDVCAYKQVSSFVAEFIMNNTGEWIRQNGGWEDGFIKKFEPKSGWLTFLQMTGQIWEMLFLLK
The class given is functional.

Assay [7] has as its system Cryptococcus neoformans. Briefly: Cryptococcus growth inhibition by alamar blue – cell lysis, cherry-picks, replicate tests, mechanism study for C. neoformans antifungal project, dose response (AID 686999). The assay is classed as functional, organism-based. Background: The colour change of resazurin is a common sign of viable cells or microbes.
A short description of assay [8]: alpha-synuclein stem-loop luciferase translation blockers – H4 neuroglioma cells, luminescence, confirmation (AID 1988). The assay is classed as functional, cell-based.
Assay [9] concerns HeLa. Briefly: viability loss in HeLa cells – cell-based, ATP luminescence, cherry-pick samples, cytotoxicity control, dose response (AID 687004). The class given is functional. The following applies: Homo sapiens.
Assay [10] deals with Beta-galactosidase (Escherichia coli, UniProt Q8VNN2). Briefly: PubChem AID 485352. The assay is classed as functional.
For assay [11], the target named is T2, Protein skinhead-1 (Caenorhabditis elegans, UniProt P34707).
T2 sequence (P34707 whole entry): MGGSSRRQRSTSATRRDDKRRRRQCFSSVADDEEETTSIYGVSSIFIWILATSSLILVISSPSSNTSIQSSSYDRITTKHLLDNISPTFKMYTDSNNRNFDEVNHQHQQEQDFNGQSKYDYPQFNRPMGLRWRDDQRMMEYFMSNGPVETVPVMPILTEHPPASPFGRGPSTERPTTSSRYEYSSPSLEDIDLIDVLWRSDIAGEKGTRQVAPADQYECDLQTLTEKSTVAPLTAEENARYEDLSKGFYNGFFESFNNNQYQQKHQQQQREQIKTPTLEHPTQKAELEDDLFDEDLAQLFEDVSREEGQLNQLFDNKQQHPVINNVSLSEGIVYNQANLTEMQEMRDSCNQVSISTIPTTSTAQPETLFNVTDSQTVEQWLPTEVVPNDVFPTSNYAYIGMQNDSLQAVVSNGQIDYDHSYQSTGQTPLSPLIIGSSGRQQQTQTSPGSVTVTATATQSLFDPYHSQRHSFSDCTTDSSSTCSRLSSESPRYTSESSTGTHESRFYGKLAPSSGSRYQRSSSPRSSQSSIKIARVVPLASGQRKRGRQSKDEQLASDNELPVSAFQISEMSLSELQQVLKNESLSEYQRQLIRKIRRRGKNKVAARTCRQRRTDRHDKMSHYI
The class given is functional.

Assay [12] has as its target T3, Sentrin-specific protease 7 (Homo sapiens, UniProt Q9BQF6).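 Further: Luminescence-based dose-response confirmation of ultra-high-throughput screening hits, measuring inhibition of SENP7.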
T3 sequence (Q9BQF6 whole entry): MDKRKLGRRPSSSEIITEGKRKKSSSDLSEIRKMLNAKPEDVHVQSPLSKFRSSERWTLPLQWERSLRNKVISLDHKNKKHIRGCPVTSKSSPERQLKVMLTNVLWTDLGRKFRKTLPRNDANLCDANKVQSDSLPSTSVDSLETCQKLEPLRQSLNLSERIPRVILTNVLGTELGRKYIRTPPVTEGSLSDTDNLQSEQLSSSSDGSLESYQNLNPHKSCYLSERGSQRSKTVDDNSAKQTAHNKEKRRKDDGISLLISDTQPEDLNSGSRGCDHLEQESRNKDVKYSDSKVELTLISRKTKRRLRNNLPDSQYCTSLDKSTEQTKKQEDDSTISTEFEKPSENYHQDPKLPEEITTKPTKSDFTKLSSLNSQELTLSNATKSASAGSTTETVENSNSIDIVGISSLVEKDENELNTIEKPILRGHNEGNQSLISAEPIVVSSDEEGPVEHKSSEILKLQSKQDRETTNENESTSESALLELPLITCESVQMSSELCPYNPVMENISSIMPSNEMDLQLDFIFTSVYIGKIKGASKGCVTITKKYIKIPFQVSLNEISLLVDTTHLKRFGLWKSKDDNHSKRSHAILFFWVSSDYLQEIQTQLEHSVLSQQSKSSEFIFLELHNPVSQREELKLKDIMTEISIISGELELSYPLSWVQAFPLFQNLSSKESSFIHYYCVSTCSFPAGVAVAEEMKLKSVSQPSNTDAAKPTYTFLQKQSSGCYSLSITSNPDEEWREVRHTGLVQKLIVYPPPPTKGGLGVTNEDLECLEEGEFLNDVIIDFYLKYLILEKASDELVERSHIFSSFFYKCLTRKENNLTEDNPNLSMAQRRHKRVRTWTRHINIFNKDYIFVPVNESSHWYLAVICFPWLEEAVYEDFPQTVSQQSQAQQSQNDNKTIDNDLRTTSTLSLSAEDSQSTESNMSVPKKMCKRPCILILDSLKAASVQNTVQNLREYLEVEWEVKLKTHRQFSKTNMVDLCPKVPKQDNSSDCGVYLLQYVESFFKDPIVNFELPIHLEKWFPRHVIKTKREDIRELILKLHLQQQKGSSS
The class given is functional.

Assay [13] deals with Peroxisome proliferator-activated receptor gamma/Nuclear receptor corepressor 2 (Homo sapiens, UniProt P37231+Q9Y618). The class given is functional.
Peroxisome proliferator-activated receptor gamma/Nuclear receptor corepressor 2, sequence (P37231 whole entry): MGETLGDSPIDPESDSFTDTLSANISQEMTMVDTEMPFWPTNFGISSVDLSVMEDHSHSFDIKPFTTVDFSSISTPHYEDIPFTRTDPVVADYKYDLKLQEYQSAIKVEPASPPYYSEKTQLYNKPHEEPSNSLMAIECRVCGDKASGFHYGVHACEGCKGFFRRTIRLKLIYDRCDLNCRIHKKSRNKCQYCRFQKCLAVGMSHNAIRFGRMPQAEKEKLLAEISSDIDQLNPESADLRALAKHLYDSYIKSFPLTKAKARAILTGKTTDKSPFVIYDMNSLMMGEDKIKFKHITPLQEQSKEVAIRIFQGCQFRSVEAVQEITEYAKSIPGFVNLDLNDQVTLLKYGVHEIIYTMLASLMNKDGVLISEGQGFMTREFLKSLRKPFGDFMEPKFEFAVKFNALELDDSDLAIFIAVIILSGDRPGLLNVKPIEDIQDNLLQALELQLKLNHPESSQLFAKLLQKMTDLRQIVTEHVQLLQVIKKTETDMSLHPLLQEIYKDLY
Peroxisome proliferator-activated receptor gamma/Nuclear receptor corepressor 2, sequence (Q9Y618 whole entry): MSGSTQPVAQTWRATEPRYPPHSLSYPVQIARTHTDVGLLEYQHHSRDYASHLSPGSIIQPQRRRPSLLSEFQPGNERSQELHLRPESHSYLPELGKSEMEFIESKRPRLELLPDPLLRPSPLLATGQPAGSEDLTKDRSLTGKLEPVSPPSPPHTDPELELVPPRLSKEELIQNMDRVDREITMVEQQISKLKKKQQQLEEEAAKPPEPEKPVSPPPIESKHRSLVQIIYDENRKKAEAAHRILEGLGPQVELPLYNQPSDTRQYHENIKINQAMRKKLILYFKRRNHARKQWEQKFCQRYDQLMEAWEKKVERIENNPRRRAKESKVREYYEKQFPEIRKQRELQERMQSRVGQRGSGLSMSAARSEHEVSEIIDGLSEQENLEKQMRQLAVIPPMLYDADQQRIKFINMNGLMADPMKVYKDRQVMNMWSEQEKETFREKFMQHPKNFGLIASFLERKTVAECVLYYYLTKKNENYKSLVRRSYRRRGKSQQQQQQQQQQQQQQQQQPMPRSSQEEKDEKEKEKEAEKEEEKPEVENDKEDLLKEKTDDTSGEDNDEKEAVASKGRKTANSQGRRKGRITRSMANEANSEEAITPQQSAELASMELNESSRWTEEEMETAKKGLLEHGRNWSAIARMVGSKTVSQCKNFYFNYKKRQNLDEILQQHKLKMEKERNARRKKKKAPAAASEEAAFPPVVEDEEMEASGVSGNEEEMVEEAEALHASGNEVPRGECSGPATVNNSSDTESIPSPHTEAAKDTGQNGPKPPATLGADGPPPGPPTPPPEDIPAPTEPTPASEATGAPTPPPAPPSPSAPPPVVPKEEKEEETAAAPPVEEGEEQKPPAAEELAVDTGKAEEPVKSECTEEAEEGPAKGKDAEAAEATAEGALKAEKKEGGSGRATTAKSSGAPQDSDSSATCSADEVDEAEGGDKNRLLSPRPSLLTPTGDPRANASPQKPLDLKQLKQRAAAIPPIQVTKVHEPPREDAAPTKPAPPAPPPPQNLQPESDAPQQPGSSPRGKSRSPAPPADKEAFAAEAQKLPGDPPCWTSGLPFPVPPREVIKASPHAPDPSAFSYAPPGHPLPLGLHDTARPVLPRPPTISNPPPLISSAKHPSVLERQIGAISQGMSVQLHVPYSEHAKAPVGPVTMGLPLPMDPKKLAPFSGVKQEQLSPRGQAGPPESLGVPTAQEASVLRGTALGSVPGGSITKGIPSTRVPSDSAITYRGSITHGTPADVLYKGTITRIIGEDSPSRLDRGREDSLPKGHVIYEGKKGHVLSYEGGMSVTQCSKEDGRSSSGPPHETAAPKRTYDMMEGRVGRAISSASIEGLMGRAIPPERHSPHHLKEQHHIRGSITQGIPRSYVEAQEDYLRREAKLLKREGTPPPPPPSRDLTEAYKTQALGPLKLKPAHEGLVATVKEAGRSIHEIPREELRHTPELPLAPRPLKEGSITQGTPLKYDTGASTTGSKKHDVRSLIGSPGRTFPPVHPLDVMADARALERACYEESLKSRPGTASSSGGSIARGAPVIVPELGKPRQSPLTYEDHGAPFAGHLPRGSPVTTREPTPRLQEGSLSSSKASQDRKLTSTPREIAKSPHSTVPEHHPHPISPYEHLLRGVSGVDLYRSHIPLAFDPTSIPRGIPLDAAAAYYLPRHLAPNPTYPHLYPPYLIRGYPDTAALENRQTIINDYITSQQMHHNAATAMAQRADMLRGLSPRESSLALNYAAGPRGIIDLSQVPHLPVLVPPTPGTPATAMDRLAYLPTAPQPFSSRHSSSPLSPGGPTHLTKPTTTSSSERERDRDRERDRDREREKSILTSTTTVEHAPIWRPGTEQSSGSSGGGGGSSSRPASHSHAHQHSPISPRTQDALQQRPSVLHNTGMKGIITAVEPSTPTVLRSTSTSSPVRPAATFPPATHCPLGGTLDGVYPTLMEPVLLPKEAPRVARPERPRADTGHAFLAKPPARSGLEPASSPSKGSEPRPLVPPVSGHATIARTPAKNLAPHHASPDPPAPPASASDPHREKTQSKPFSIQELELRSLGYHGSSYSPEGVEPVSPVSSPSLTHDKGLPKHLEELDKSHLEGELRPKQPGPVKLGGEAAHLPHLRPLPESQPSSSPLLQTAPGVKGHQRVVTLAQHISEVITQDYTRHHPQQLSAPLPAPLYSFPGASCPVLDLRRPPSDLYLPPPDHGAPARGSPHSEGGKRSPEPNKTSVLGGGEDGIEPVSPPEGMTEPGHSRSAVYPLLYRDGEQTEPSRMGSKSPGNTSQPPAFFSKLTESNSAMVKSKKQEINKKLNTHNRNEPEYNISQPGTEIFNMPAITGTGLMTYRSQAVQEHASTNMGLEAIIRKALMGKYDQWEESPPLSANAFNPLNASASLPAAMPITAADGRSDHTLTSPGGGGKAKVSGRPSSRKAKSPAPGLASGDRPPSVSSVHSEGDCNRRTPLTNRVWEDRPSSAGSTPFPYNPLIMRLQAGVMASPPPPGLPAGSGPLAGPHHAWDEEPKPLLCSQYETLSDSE

Beta-galactosidase, sequence (Q8VNN2 whole entry): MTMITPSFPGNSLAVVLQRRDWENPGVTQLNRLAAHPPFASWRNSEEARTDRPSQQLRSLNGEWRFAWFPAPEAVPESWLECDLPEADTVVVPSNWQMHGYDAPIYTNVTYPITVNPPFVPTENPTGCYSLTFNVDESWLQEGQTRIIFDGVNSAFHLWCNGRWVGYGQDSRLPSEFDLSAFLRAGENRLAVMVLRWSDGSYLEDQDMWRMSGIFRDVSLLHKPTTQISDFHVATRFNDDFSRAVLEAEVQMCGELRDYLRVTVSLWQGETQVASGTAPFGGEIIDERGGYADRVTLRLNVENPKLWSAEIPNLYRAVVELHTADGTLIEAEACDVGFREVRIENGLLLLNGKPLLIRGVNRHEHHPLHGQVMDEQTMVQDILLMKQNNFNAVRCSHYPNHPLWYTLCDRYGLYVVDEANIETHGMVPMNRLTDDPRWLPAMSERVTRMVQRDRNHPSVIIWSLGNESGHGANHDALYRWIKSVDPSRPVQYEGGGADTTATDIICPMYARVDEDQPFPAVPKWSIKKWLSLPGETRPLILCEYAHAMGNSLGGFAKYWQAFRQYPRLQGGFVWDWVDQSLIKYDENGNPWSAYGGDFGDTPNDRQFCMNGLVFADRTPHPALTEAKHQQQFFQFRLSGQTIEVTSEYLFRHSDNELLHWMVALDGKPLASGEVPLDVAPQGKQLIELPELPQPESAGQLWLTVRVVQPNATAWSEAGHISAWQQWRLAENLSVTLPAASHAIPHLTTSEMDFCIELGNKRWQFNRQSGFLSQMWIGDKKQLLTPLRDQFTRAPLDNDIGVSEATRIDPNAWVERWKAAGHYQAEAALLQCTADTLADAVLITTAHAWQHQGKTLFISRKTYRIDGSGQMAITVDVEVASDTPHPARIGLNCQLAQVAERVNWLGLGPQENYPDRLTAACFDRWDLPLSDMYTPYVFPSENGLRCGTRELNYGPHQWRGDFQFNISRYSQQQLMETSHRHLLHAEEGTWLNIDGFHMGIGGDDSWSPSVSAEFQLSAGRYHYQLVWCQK
Large T antigen, sequence (P03070 whole entry): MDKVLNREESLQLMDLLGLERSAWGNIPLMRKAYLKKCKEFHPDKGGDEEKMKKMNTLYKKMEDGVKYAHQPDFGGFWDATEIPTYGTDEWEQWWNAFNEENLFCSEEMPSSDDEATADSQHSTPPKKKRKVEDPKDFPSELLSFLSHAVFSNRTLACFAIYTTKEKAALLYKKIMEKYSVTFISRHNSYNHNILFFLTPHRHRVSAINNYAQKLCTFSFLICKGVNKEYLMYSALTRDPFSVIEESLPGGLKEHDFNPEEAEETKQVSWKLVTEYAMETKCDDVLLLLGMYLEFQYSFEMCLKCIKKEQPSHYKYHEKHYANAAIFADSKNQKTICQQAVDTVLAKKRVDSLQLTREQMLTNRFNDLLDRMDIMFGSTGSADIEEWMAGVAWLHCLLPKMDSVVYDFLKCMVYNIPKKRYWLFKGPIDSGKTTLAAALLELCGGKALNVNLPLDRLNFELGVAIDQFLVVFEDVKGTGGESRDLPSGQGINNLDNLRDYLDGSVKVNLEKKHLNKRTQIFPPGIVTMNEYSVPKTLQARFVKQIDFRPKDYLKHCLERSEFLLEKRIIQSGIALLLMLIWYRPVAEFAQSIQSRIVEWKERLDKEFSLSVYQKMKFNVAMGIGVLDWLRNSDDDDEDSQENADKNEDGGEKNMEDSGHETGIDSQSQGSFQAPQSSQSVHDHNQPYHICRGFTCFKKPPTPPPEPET

In the case of `CCCCCCCCCCOC(=O)Cn1c(COc2ccccc2)[n+](C)c2ccccc21`, the concentration giving a half-maximal response (EC50) in assay [1] was 6.91 µM (active).
In the case of `COc1cc(-c2nnc(SCc3cc(=O)oc4cc(O)c(O)cc34)o2)cc(OC)c1OC`, the CC50 in assay [2] was > 40 µM (active). For the same compound, the IC50 in assay [3] was > 2.65 µM (active); in [4] it was 2.8 µM (active).
In the case of `CCOC(=O)c1c(-c2ccc(-c3ccccc3)cc2)csc1NC(=O)CNCCN(C)C`, the AC50 in assay [5] was 18.4 µM (active); in assay [7], 14.7 µM (active); in assay [9] it was 8.39 µM (active). Moreover, the IC50 in assay [6] is > 20 µM (inactive); in [11], 12.5 µM (active). Further, the EC50 was 9.16 µM (active) in assay [8] and > 40 µM (inactive) in assay [10].
Regarding `N#Cc1c(NC(=O)c2ccc(Br)o2)n(-c2ccccc2)c2nc3ccccc3nc12`, the figures for the IC50 in assay [12] and in [13] were 3.69 µM (active) and 5.08 µM (active), respectively.
